What all share (assay): NCI anticancer screen, dose series, 48 h
The test system of experiment [1] is NCI/ADR-RES ovarian.
Experiment [2] has as its system HT29 colon.
Experiment [3] relates to SNB-19 CNS.
Experiment [4] relates to OVCAR-8 ovarian.
The test system of experiment [5] is COLO 205 colon.
Experiment [6] deals with K-562 leukemia.
Experiment [7] concerns NCI-H23 lung.
Experiment [8] deals with MDA-MB-231 breast.
The test system of experiment [9] is A498 renal.
Experiment [10] relates to SK-MEL-5 melanoma.

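These data come from cells grown in 96-well plates and exposed to compound for 48 hours at five concentrations. Definition used: TGI = concentration required for complete inhibition of growth.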

`O=c1[nH]c2ccc(C(F)(F)F)cc2nc1-c1ccccc1`: the TGI in [1], in [2], in [3], in experiment [4], in experiment [5] and in [6] was above 100 µM each time. Besides, the TGI in experiment [7], in [8], in experiment [9] and in [10] was above 100 µM each time.

As for `Brc1cccc(/C=C/CN2CCN(CCOC(c3ccccc3)c3ccccc3)CC2)c1`, the TGI in experiment [1] was determined as 30.4 µM; in experiment [2], 24.2 µM; in [3], 37.7 µM; in [4], 29.7 µM; in experiment [5], 36.2 µM; in experiment [6], 28.6 µM. Besides, the TGI in experiment [7] amounted to 36.9 µM; in [8] it was 29.1 µM; in experiment [9], 32 µM; in [10], 33.6 µM.

Turning to `CCOC(=O)/C(C#N)=C/c1ccc2c(-c3c(OCC)ccc4cc(/C=C(\C#N)C(=O)OCC)ccc34)c(OCC)ccc2c1`, the TGI in experiment [1], in experiment [2], in experiment [3], in [4], in [5] and in experiment [6] was above 100 µM each time. The TGI in [7] was above 100 µM; in experiment [8] it was 56.1 µM; in experiment [9], above 100 µM; in experiment [10] it was above 100 µM.

`C/C(=N/NC(=S)Nc1ccccc1Cl)c1ccccn1`: the TGI in experiment [1] turned out to be 6.53 µM; in experiment [2], 24.7 µM; in [3], 48.5 µM; in experiment [4], 9.18 µM; in experiment [5] it was 2.54 µM; in experiment [6] it was 3.25 µM. Besides, the TGI in [7] worked out at 32.8 µM; in [8], 17.3 µM; in [9], 9.31 µM; in [10], 8.67 µM.

Regarding `CCN(CC)c1ccc(/C=C(\C#N)c2nc(N)nc(N3N=C(C)CC3(C)C)n2)cc1`, the TGI in [1] was above 49.4 µM; in [2] it was above 49.2 µM; in [3], 37.1 µM; in [4], 24.4 µM; in experiment [5], above 100 µM; in experiment [6], above 68.7 µM. The TGI in experiment [7] is above 80.9 µM; in experiment [8], 26.8 µM; in experiment [9], 35.2 µM; in experiment [10], above 61 µM.

With `S=c1ssc2c3ssc(=S)c3n(Cc3ccccc3)c12`, the TGI in [1], in experiment [2], in experiment [3], in experiment [4], in experiment [5] and in experiment [6] was above 100 µM throughout. The TGI in experiment [7], in [8], in [9] and in experiment [10] was above 100 µM throughout.

`Cc1ccc(S(=O)ON2CCC(C(=O)O)(c3ccccc3)CC2)cc1` (stereo not given): the TGI in experiment [1], in experiment [2], in [3], in experiment [4], in [5] and in experiment [6] was above 100 µM throughout. Moreover, the TGI in experiment [7], in experiment [8], in experiment [9] and in [10] was above 100 µM throughout.

`CCOC(=O)CC(=O)NC1CC2CCC1(C)C2(C)C` (stereo not given): the TGI in experiment [1], in [2], in [3], in [4], in experiment [5] and in experiment [6] was above 100 µM throughout. For the same molecule, the TGI in [7], in experiment [8], in experiment [9] and in experiment [10] was above 100 µM each time.

For the molecule `CCN(CC)C(=S)SS(=O)(=O)c1ccccc1C(=O)O`, the TGI in experiment [1], in experiment [2], in experiment [3], in [4], in experiment [5] and in experiment [6] was above 100 µM in each case. In addition, the TGI in [7], in experiment [8], in [9] and in experiment [10] was above 100 µM each time.

As to `CN1C2CCC1CC(OC(c1ccccc1)c1ccccc1)C2` (stereo not given), the TGI in experiment [1] came to 34.3 µM; in [2] it was 23 µM; in [3], 48.3 µM; in experiment [4], 29.9 µM; in experiment [5], 23.7 µM; in experiment [6], 34.5 µM. Moreover, the TGI stood at 83.3 µM in experiment [7], 32.7 µM in experiment [8], 28.4 µM in experiment [9] and 29.1 µM in experiment [10].

On to `C[C@]12CC[C@@H]3c4ccc(O)cc4CC[C@H]3[C@@H]1C/C(=C\c1ccc([N+](=O)[O-])cc1)C2=O`, for which the TGI was above 100 µM in [1]; 37.2 µM in experiment [2]; above 100 µM in experiment [3]; above 100 µM in experiment [4]; above 100 µM in experiment [5]; above 100 µM in [6]. Besides, the TGI in [7], in experiment [8], in experiment [9] and in [10] was above 100 µM each time.

On to `Cn1cc(C(=O)c2nccc3c2cnc2ccccc23)ccc1=O`, for which the TGI in experiment [1], in [2], in experiment [3], in experiment [4], in experiment [5] and in experiment [6] was above 100 µM in each case. Besides, the TGI in [7], in experiment [8], in [9] and in [10] was above 100 µM each time.

Turning to `Cn1c(=O)oc2cc(C(=O)CSC(=S)N3CCCCCC3)ccc21`, the TGI was above 100 µM in [1]; 36.7 µM in experiment [2]; above 100 µM in [3]; above 100 µM in experiment [4]; above 100 µM in [5]; above 100 µM in experiment [6]. Moreover, the TGI in [7], in experiment [8], in [9] and in experiment [10] was above 100 µM each time.

Values taken from PubChem BioAssay (NCI).
